Read-outs that look alike come from different tables or passages of the source.
Columns and labels:
[1] = test system: Key Broadleaf Weed and Crop Species; assay: Post-emergent Test II herbicidal activity (Table 15); format: in vivo; conditions: post-emergence, 336 h, 14 d; for pest or weed control at 35 g/ha: 35 g ai/ha; for pest or weed control at 70 g/ha: 70 g ai/ha; for pest or weed control at 140 g/ha: 140 g ai/ha
Method in brief: (§1)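 Post-emergence spray; seedlings 7-21 d old, 1st-2nd true leaf; 187 L/ha; serial rates 1×-1/16×; solvent blank controls; subirrigated; visual % injury at 14 d.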

[2] = test system: Key Grass and Sedge Weeds as well as Grass Crops; assay: Post-emergent Test II herbicidal activity (Table 16); format: in vivo; conditions: post-emergence, 336 h, 14 days after application; for pest or weed control at 35 g/ha: 35 g ai/ha; for pest or weed control at 70 g/ha: 70 g ai/ha; for pest or weed control at 140 g/ha: 140 g ai/ha
Method in brief: as §1

[3] = Abutilon theophrasti, velvetleaf (Abutilon theophrasti), read-out: Visual Growth Reduction (%) 14 Days After Application, ABUTH
[4] = Brassica napus, oilseed rape, canola (Brassica napus), read-out: Visual Growth Reduction (%) 14 Days After Application, BRSNN
[5] = Chenopodium album, lambsquarters (Chenopodium album), read-out: Visual Growth Reduction (%) 14 Days After Application, CHEAL
[6] = Euphorbia heterophylla, wild poinsettia (Euphorbia heterophylla), read-out: Visual Growth Reduction (%) 14 Days After Application, EPHHL
[7] = Helianthus annuus, sunflower (Helianthus annuus), read-out: Visual Growth Reduction (%) 14 Days After Application, HELAN
[8] = Cyperus esculentus, yellow nutsedge (Cyperus esculentus), read-out: Visual Growth Reduction (%) 14 Days After Application CYPES
[9] = Echinochloa crus-galli, barnyardgrass (Echinochloa crus-galli), read-out: Visual Growth Reduction (%) 14 Days After Application ECHCG
[10] = Oryza sativa, rice (Oryza sativa), read-out: Visual Growth Reduction (%) 14 Days After Application ORYSA
[11] = Setaria faberi, giant foxtail (Setaria faberi), read-out: Visual Growth Reduction (%) 14 Days After Application SETFA
[12] = Triticum aestivum, wheat, spring (Triticum aestivum), read-out: Visual Growth Reduction (%) 14 Days After Application TRZAS
[13] = Zea mays, maize, corn (Zea mays), read-out: Visual Growth Reduction (%) 14 Days After Application ZEAMX
[14] = Amaranthus retroflexus, redroot pigweed (Amaranthus retroflexus), read-out: Visual Growth Reduction (%) 14 Days After Application, AMARE

Compound	pest or weed control at 35 g/ha [1, 3]	pest or weed control at 70 g/ha [1, 3]	pest or weed control at 140 g/ha [1, 3]	pest or weed control at 35 g/ha [1, 4]	pest or weed control at 70 g/ha [1, 4]	pest or weed control at 140 g/ha [1, 4]	pest or weed control at 35 g/ha [1, 5]	pest or weed control at 70 g/ha [1, 5]	pest or weed control at 140 g/ha [1, 5]	pest or weed control at 35 g/ha [1, 6]	pest or weed control at 70 g/ha [1, 6]	pest or weed control at 140 g/ha [1, 6]	pest or weed control at 35 g/ha [1, 7]	pest or weed control at 70 g/ha [1, 7]	pest or weed control at 140 g/ha [1, 7]	pest or weed control at 35 g/ha [2, 8]	pest or weed control at 70 g/ha [2, 8]	pest or weed control at 140 g/ha [2, 8]	pest or weed control at 35 g/ha [2, 9]	pest or weed control at 70 g/ha [2, 9]	further results
Nc1c(Cl)c(C(=O)O)nc(-c2ccc3ccsc3c2)c1Cl [Compound 3.11]	0 to 29%	0 to 29%	0 to 29%	0 to 29%	0 to 29%	0 to 29%	85 to 94%	85 to 94%	85 to 94%	0 to 29%	0 to 29%	0 to 29%	85 to 94%	85 to 94%	85 to 94%	0 to 29%	0 to 29%	0 to 29%	0 to 29%	0 to 29%	pest or weed control at 140 g/ha [2, 9]: 0 to 29%; pest or weed control at 35 g/ha [2, 10]: 0 to 29%; pest or weed control at 70 g/ha [2, 10]: 0 to 29%; pest or weed control at 140 g/ha [2, 10]: 0 to 29%; pest or weed control at 35 g/ha [2, 11]: 0 to 29%; pest or weed control at 70 g/ha [2, 11]: 0 to 29%; pest or weed control at 140 g/ha [2, 11]: 0 to 29%; pest or weed control at 35 g/ha [2, 12]: 0 to 29%; pest or weed control at 70 g/ha [2, 12]: 0 to 29%; pest or weed control at 140 g/ha [2, 12]: 0 to 29%; pest or weed control at 35 g/ha [2, 13]: 0 to 29%; pest or weed control at 70 g/ha [2, 13]: 0 to 29%; pest or weed control at 140 g/ha [2, 13]: 0 to 29%; melting point: 239 °C (dec.)
COC(=O)c1nc(-c2ccc3ccsc3c2)c(F)c(N)c1Cl [Compound 3.12]	60 to 74%	95 to 100%	95 to 100%	0 to 29%	0 to 29%	30 to 44%	95 to 100%	95 to 100%	95 to 100%	60 to 74%	60 to 74%	85 to 94%	85 to 94%	85 to 94%	85 to 94%	0 to 29%	0 to 29%	0 to 29%	85 to 94%	85 to 94%	pest or weed control at 35 g/ha [1, 14]: 60 to 74%; pest or weed control at 70 g/ha [1, 14]: 60 to 74%; pest or weed control at 140 g/ha [1, 14]: 85 to 94%; pest or weed control at 140 g/ha [2, 9]: 85 to 94%; pest or weed control at 35 g/ha [2, 10]: 0 to 29%; pest or weed control at 70 g/ha [2, 10]: 0 to 29%; pest or weed control at 140 g/ha [2, 10]: 0 to 29%; pest or weed control at 35 g/ha [2, 11]: 0 to 29%; pest or weed control at 70 g/ha [2, 11]: 0 to 29%; pest or weed control at 140 g/ha [2, 11]: 0 to 29%; pest or weed control at 35 g/ha [2, 12]: 0 to 29%; pest or weed control at 70 g/ha [2, 12]: 0 to 29%; pest or weed control at 140 g/ha [2, 12]: 0 to 29%; pest or weed control at 35 g/ha [2, 13]: 95 to 100%; pest or weed control at 70 g/ha [2, 13]: 95 to 100%; pest or weed control at 140 g/ha [2, 13]: 95 to 100%; melting point: 185 to 189 °C
Nc1c(F)c(-c2ccc3ccsc3c2)nc(C(=O)O)c1Cl [Compound 3.13]	0 to 29%	0 to 29%	75 to 84%	0 to 29%	0 to 29%	60 to 74%	85 to 94%	95 to 100%	95 to 100%	0 to 29%	0 to 29%	60 to 74%	85 to 94%	85 to 94%	85 to 94%	0 to 29%	0 to 29%	0 to 29%	60 to 74%	60 to 74%	pest or weed control at 35 g/ha [1, 14]: 95 to 100%; pest or weed control at 70 g/ha [1, 14]: 95 to 100%; pest or weed control at 140 g/ha [1, 14]: 95 to 100%; pest or weed control at 140 g/ha [2, 9]: 75 to 84%; pest or weed control at 35 g/ha [2, 10]: 0 to 29%; pest or weed control at 70 g/ha [2, 10]: 0 to 29%; pest or weed control at 140 g/ha [2, 10]: 0 to 29%; pest or weed control at 35 g/ha [2, 12]: 0 to 29%; pest or weed control at 70 g/ha [2, 12]: 0 to 29%; pest or weed control at 140 g/ha [2, 12]: 0 to 29%; pest or weed control at 35 g/ha [2, 13]: 60 to 74%; pest or weed control at 70 g/ha [2, 13]: 60 to 74%; pest or weed control at 140 g/ha [2, 13]: 60 to 74%; melting point: 165 to 167 °C

From US20170050957A1, “4-AMINO-6-(HETEROCYCLIC)PICOLINATES AND 6-AMINO-2-(HETEROCYCLIC)PYRIMIDINE-4-CARBOXYLATES AND THEIR USE AS HERBICIDES” (Dow AgroSciences LLC, priority 2013, published 2017)
